Assay results as given in US9120804B2, “8-substituted 2-amino-[1,2,4] triazolo [1, 5-A] pyrazines as Syk tryrosine kinase inhibitors and GCN2 serin kinase inhibitors” (Merck Patent GmbH, priority 2012, dated 2015).

Biological target: T1, SYK (Homo sapiens, UniProt P43405)
T1 construct: 2.5 nM SYK, 400 nM Biotin-Aha-Aha-KEDPDYEWPSAKK
Test: SYK flash plate assay (enzyme assay)
Type: biochemical
Protocol: The kinase assay is performed either as 384-well Flashplate assay (for e.g. Topcount measurement) or as 384-well Image-Flashplate assay (for LEADseeker measurement).
2.5 nM SYK, 400 nM Biotin-Aha-Aha-KEDPDYEWPSAKK
and 10 μM ATP (spiked with 0.3 μCi 33P-ATP/well) are incubated in a total volume of 50 μl (60 mM Hepes, 10 mM MgCl2, 1.2 mM Dithiothreitol, 0.02% Brij35, 0.1% BSA, pH 7.5) with or without test compound for 1 hours at 30° C. The reaction is stopped with 25 μl 200 mM EDTA. After 30 Min at 30° C. the liquid is removed and each well washed thrice with 100 μl 0.9% sodium chloride solution. Non-specific reaction is determined in presence of […] Staurosporine. Radioactivity is measured with Topcount (when using Flashplates) or with LEADseeker (when using Image-Flashplates) respectively. Results (e.g. IC50-values) are calculated with program tools provided by the IT-department (e.g. Symyx Assay Explorer, Genedata Screener). In Vivo Assays CIA

Structure (SMILES)	IC50 [nM]
CC1(C)C(=O)Nc2cc(Nc3nc4c(N5CCCC(C(N)=O)C5)nccn4n3)ccc21 (stereo not shown) [E113, 1-[2-(3,3-dimethyl-2-oxo-2,3-dihydro-1H-indol-6-ylamino)-[1,2,4]triazolo[1,5-a]pyrazin-8-yl]-piperidine-3-carboxylic acid amide]	< 100
CC1(C)C(=O)Nc2cc(Nc3nc4c(-c5ccc(N(C(F)(F)F)C(F)(F)F)cc5)nccn4n3)ccc21 [E152, 6-{8-[4-(bis-trifluoromethyl-amino)-phenyl]-[1,2,4]triazolo[1,5-a]pyrazin-2-ylamino}-3,3-dimethyl-1,3-dihydro-indol-2-one]	3000 to 50000
CC1(C)C(=O)Nc2cc(Nc3nc4c(N5CC6(CCNC6)c6cc(Cl)ccc65)nccn4n3)ccc21 (stereo not shown) [E130, 6-[8-(5-Chloro-spiro[indole-3,3′-pyrrolidin]-1-yl)-[1,2,4]triazolo[1,5-a]pyrazin-2-ylamino]-3,3-dimethyl-1,3-dihydro-indol-2-one]	300 to 3000
COc1cc(Nc2nc3c(N4CCNC(c5ccccc5)C4)nccn3n2)cc(OC)c1 (stereo not shown) [C54, (3,5-dimethoxy-phenyl)-[8-(3-phenyl-piperazin-1-yl)-[1,2,4]triazolo[1,5-a]pyrazin-2-yl]-amine]	3000 to 50000
CC1(C(N)=O)CCN(c2nccn3nc(Nc4ccc5c(c4)NC(=O)C5(C)C)nc23)C1 (stereo not shown) [E75, 1-[2-(3,3-dimethyl-2-oxo-2,3-dihydro-1H-indol-6-ylamino)-[1,2,4]triazolo[1,5-a]pyrazin-8-yl]-3-methyl-pyrrolidine-3-carboxylic acid amide]	< 100
CC1(C)C(=O)Nc2cc(Nc3nc4c(N5CCCCCC5)nccn4n3)ccc21 [E57, 6-(8-azepan-1-yl-[1,2,4]triazolo[1,5-a]pyrazin-2-ylamino)-3,3-dimethyl-1,3-dihydro-indol-2-one]	< 100
CC1(C)C(=O)Nc2cc(Nc3nc4c(-c5cnn(CCO)c5)nccn4n3)ccc21 [E145, 6-{8-[1-(2-hydroxy-ethyl)-1H-pyrazol-4-yl]-[1,2,4]triazolo[1,5-a]pyrazin-2-ylamino)-3,3-dimethyl-1,3-dihydro-indol-2-one]	< 100
CC1(C)C(=O)Nc2cc(Nc3nc4c(N5CCC6(CC5)CNC(=O)O6)nccn4n3)ccc21 [E27, 8-[2-(3,3-dimethyl-2-oxo-2,3-dihydro-1H-indol-6-ylamino)-[1,2,4]triazolo[1,5-a]pyrazin-8-yl]-1-oxa-3,8-diaza-spiro[4.5]decan-2-one]	< 100
CC1(C)C(=O)Nc2cc(Nc3nc4c(-c5cc6n(n5)CCOC6)nccn4n3)ccc21 [E132, 6-[8-(6,7-Dihydro-4H-pyrazolo[5,1-c][1,4]oxazin-2-yl)-[1,2,4]triazolo[1,5-a]pyrazin-2-ylamino]-3,3-dimethyl-1,3-dihydro-indol-2-one]	300 to 3000
CC1(C)C(=O)Nc2cc(Nc3nc4c(NC(=O)c5ccc6c(c5)NCC6)nccn4n3)ccc21 [E129, 2,3-dihydro-1H-indole-6-carboxylic acid [2-(3,3-dimethyl-2-oxo-2,3-dihydro-1H-indol-6-ylamino)-[1,2,4]triazolo[1,5-a]pyrazin-8-yl]-amide]	300 to 3000
CC1(C)CCNc2cc(Nc3nc4c(N5CC[C@@]6(CNC(=O)C6)C5)nccn4n3)ccc21 [E101, (R)-7-[2-(4,4-dimethyl-1,2,3,4-tetrahydro-quinolin-7-ylamino)-[1,2,4]triazolo[1,5-a]pyrazin-8-yl]-2,7-diaza-spiro[4.4]nonan-3-one]	< 100
CC1(C)C(=O)Nc2cc(Nc3nc4c(NC5CCCNC5)nccn4n3)ccc21 (stereo not shown) [C77, 3,3-dimethyl-6-[8-(piperidin-3-ylamino)-[1,2,4]triazolo[1,5-a]pyrazin-2-ylamino]-1,3-dihydro-indol-2-one]	< 100
CC1(C)C(=O)Nc2cc(Nc3nc4c(N5CCC(CO)C5)nccn4n3)ccc21 (stereo not shown) [E30, 6-[8-(3-hydroxymethyl-pyrrolidin-1-yl)-[1,2,4]triazolo[1,5-a]pyrazin-2-ylamino]-3,3-dimethyl-1,3-dihydro-indol-2-one]	3000 to 50000
Cn1cc(-c2nccn3nc(Nc4ccc(C(C)(C)C)cc4)nc23)cn1 [C62, (4-tert-butyl-phenyl)-[8-(1-methyl-1H-pyrazol-4-yl)-[1,2,4]triazolo[1,5-a]pyrazin-2-yl]-amine]	100 to 300

Next, values leading:

IC50 [nM]	Structure (SMILES)
< 100	CC1(C)C(=O)Nc2cc(Nc3nc4c(N5Cc6cn[nH]c6C5)nccn4n3)ccc21 [E32, 6-[8-(4,6-dihydro-1H-pyrrolo[3,4-c]pyrazol-5-yl)-[1,2,4]triazolo[1,5-a]pyrazin-2-ylamino]-3,3-dimethyl-1,3-dihydro-indol-2-one]
100 to 300	CC1(C)C(=O)Nc2cc(Nc3nc4c(N5CC6C(=O)NC(=O)C6C5)nccn4n3)ccc21 (stereo not shown) [E33, 5-[2-(3,3-dimethyl-2-oxo-2,3-dihydro-1H-indol-6-ylamino)-[1,2,4]triazolo[1,5-a]pyrazin-8-yl]-tetrahydro-pyrrolo[3,4-c]pyrrole-1,3-dione]
100 to 300	CC1(C)C(=O)Nc2cc(Nc3nc4c(N5CCC(COC=O)C5)nccn4n3)ccc21 (stereo not shown) [E34, formic acid 1-[2-(3,3-dimethyl-2-oxo-2,3-dihydro-1H-indol-6-ylamino)-[1,2,4]triazolo[1,5-a]pyrazin-8-yl]pyrrolidin-3-ylmethyl ester]
100 to 300	CC1(C)C(=O)Nc2cc(Nc3nc4c(N5CCC(CNCC(F)(F)F)C5)nccn4n3)ccc21 (stereo not shown) [E65, 3,3-dimethyl-6-(8-{3[(2,2,2-trifluoro-ethylamino)-methyl]-pyrrolidin-1-yl}-[1,2,4]triazolo[1,5-a]pyrazin-2-ylamino)-1,3-dihydro-indol-2-one]
3000 to 50000	C[S+]([O-])c1ccc(Nc2nc3c(-c4ccccc4-c4ccccc4)nccn3n2)cc1 (stereo not shown) [C31, (8-Biphenyl-2-yl-[1,2,4]triazolo[1,5-a]pyrazin-2-yl)-(4-methanesulfinyl-phenyl)-amine]
< 100	CC1(C)C(=O)Nc2cc(Nc3nc4c(N5CCc6ccc(C(N)=O)cc6C5)nccn4n3)ccc21 [E128, 2-[2-(3,3-dimethyl-2-oxo-2,3-dihydro-1H-indol-6-ylamino)-[1,2,4]triazolo[1,5-a]pyrazin-8-yl]-1,2,3,4-tetrahydro-isoquinoline-7-carboxylic acid amide]
100 to 300	CC1(C)C(=O)Nc2cc(Nc3nc4c(N5C[C@H](O)C[C@@H]5c5ccccc5)nccn4n3)ccc21 [E6, 6-[8-(4(2R,4R)-4-hydroxy-2-phenyl-pyrrolidin-1-yl)-[1,2,4]triazolo[1,5-a]pyrazin-2-ylamino]-3,3-dimethyl-1,3-dihydro-indol-2-one]
< 100	CC1(C)C(=O)Nc2cc(Nc3nc4c(N5CCC(C(N)=O)CC5)nccn4n3)ccc21 [E40, 1-[2-(3,3-dimethyl-2-oxo-2,3-dihydro-1H-indol-6-ylamino)-[1,2,4]triazolo[1,5-a]pyrazin-8-yl]-piperidine-4-carboxylic acid amide]
< 100	CC1(C)C(=O)Nc2cc(Nc3nc4c(N5CCC(S(N)(=O)=O)CC5)nccn4n3)ccc21 [E39, 1-[2-(3,3-dimethyl-2-oxo-2,3-dihydro-1H-indol-6-ylamino)-[1,2,4]triazolo[1,5-a]pyrazin-8-yl]-piperidine-4-sulfonic acid amide]
< 100	CC1(C)C(=O)Nc2cc(Nc3nc4c(N5C[C@@H](CO)C[C@H]5c5ccccc5)nccn4n3)ccc21 (single isomer, unassigned) [E95, 6-[8-((cis1)-4-hydroxymethyl-2-phenyl-pyrrolidin-1-yl)-[1,2,4]triazolo[1,5-a]pyrazin-2-ylamino]-3,3-dimethyl-1,3-dihydro-indol-2-one]
3000 to 50000	NS(=O)(=O)c1cccc(Nc2nc3c(-c4ccccc4-c4ccccc4)nccn3n2)c1 [C13, 3-(8-Biphenyl-2-yl-[1,2,4]triazolo[1,5-a]pyrazin-2-ylamino)-benzenesulfonamide]
300 to 3000	CC(=O)NCCNc1nccn2nc(Nc3ccc4c(c3)NC(=O)C4(C)C)nc12 [E103, N-{2-[2-(3,3-dimethyl-2-oxo-2,3-dihydro-1H-indol-6-ylamino)-[1,2,4]triazolo[1,5-a]pyrazin-8-ylamino]-ethyl}-acetamide]
300 to 3000	CC1(C)C(=O)Nc2cc(Nc3nc4c(N5C[C@H](O)C[C@@H]5c5cccc(F)c5)nccn4n3)ccc21 [E64, 6-{8-[(2R,4R)-2-(3-fluoro-phenyl)-4-hydroxy-pyrrolidin-1-yl]-[1,2,4]triazolo[1,5-a]pyrazin-2-ylamino}-3,3-dimethyl-1,3-dihydro-indol-2-one]
100 to 300	CN1[C@@H]2CC[C@H]1C[C@@H](Nc1nccn3nc(Nc4ccc5c(c4)NC(=O)C5(C)C)nc13)C2 [E78, 3,3-dimethyl-6-[8-((1R,3R,5S)-8-methyl-8-aza-bicyclo[3.2.1]oct-3-ylamino)-[1,2,4]triazolo[1,5-a]pyrazin-2-ylamino]-1,3-dihydro-indol-2-one]
< 100	CC1(C)CC(=O)Nc2cc(Nc3nc4c(N5CC[C@@]6(CC(=O)NC6=O)C5)nccn4n3)ccc21 [E48, (R)-7-[2-(4,4-dimethyl-2-oxo-1,2,3,4-tetrahydro-quinolin-7-ylamino)-[1,2,4]triazolo[1,5-a]pyrazin-8-yl]-2,7-diaza-spiro[4.4]nonane-1,3-dione]
< 100	CC(C)(O)c1ccc(Nc2nc3c(N4CCCCCC4)nccn3n2)cc1N [E125, 2-[2-amino-4-(8-azepan-1-yl-[1,2,4]triazolo[1,5-a]pyrazin-2-ylamino)-phenyl]-propan-2-ol]
< 100	CC1(C)C(=O)Nc2cc(Nc3nc4c(N5CCC(c6ncc(C(F)(F)F)[nH]6)CC5)nccn4n3)ccc21 [E59]
